From patent publication US20230277710A1, “SYSTEM AND DEVICE FOR SANITIZING THE AIR” (The Procter & Gamble Company, priority 2022, published 2023)

Test system: Staphylococcus aureus
Assay: Microorganism kill against airborne Staphylococcus aureus, pre and post filtration
Assay type: cell-based
Details: TEG pipetted onto hotplate @ 250° C.

## OCCOCCOCCO [TEG, triethylene glycol]
Post-Filtration
  Microorganism kill against Staphylococcus aureus (log10 reduction): 3 log10 reduction
  Microorganism kill against Staphylococcus aureus, time to 3 log10 reduction: in 33 min
Pre-Filtration
  Microorganism kill against Staphylococcus aureus (log10 reduction): 3 log10 reduction
  Microorganism kill against Staphylococcus aureus, time to 3 log10 reduction: in 18.2 min
